Among the data in ChEMBL document CHEMBL5291721, “A preclinical secondary pharmacology resource illuminates target-adverse drug reaction associations of marketed drugs” (Nat Commun, 2023) are AC50 values, retold here.

Among the targets are Histamine H2 receptor (Homo sapiens, UniProt P25021); D(3) dopamine receptor (Homo sapiens, UniProt P35462); Mu-type opioid receptor (Homo sapiens, UniProt P35372); D(1A) dopamine receptor (Homo sapiens, UniProt P21728).
The target of assay [1] is T1, Corticotropin-releasing factor receptor 2 (Homo sapiens, UniProt Q13324).
T1 sequence (Q13324 whole entry): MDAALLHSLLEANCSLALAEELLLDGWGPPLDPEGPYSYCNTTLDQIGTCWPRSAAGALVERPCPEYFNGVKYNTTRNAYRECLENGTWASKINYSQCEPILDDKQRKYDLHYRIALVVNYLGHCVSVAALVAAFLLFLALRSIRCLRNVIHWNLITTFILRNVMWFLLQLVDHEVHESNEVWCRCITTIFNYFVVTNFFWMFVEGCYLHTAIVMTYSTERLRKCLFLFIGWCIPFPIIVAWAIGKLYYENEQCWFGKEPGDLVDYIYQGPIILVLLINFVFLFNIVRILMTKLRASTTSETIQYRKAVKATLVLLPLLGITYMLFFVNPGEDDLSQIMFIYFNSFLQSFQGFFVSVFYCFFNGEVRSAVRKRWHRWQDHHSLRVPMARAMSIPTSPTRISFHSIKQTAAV

Assay [2] deals with T2, Alpha-2A adrenergic receptor (Homo sapiens, UniProt P08913).
T2 sequence (P08913 whole entry): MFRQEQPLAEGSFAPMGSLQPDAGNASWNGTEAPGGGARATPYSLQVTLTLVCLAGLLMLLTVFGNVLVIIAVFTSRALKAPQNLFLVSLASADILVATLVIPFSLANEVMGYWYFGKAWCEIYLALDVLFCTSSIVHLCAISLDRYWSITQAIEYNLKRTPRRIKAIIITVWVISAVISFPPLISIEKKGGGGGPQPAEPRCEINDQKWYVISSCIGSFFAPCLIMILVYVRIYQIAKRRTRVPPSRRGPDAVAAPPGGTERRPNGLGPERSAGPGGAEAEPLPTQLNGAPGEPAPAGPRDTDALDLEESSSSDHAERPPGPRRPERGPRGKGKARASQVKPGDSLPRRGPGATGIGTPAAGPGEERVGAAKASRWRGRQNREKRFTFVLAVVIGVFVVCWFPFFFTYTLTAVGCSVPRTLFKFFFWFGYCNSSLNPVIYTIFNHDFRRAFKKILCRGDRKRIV

Assay [3] concerns the target 5-hydroxytryptamine receptor 2B (Homo sapiens, UniProt P41595).
The target in assay [4] is cGMP-inhibited 3',5'-cyclic phosphodiesterase 3A (Homo sapiens, UniProt Q14432). The class given is functional.
The next assay has as its target T3, Estrogen receptor (Homo sapiens, UniProt P03372).
T3 sequence (P03372 whole entry): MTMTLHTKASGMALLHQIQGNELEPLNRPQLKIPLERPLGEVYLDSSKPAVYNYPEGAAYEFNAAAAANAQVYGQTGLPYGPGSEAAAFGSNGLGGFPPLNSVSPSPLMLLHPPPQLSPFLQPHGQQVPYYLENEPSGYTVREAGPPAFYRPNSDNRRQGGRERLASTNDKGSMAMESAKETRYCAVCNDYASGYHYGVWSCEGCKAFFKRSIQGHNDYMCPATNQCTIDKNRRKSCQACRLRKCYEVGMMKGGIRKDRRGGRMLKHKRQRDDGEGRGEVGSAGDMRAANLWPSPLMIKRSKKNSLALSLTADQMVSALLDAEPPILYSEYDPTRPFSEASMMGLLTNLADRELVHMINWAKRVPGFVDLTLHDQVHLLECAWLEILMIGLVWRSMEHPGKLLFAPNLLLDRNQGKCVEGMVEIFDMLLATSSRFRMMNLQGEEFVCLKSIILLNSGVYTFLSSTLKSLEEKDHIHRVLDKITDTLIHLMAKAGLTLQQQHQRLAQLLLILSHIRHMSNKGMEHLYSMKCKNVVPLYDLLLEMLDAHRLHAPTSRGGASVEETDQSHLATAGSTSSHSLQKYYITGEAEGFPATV

Assay [5] addresses T2, Alpha-2A adrenergic receptor. The source holds these as a separate data set.
In assay [6] the target is T4, Muscarinic acetylcholine receptor M2 (Homo sapiens, UniProt P08172).
T4 sequence (P08172 whole entry): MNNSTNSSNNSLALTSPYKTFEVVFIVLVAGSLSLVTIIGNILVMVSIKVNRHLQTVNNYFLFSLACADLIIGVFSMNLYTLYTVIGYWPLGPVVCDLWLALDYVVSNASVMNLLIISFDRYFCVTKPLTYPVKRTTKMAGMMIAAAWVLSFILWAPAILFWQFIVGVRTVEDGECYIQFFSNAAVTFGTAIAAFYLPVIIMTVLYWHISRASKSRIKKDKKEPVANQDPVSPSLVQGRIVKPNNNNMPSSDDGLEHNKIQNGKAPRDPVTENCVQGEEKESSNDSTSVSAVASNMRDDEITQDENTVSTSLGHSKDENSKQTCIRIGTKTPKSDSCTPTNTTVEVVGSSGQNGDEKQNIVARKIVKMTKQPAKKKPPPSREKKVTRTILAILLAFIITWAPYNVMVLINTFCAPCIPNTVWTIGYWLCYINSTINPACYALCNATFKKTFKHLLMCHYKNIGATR

The target of assay [7] is T5, 5-hydroxytryptamine receptor 1A (Homo sapiens, UniProt P08908).
T5 sequence (P08908 whole entry): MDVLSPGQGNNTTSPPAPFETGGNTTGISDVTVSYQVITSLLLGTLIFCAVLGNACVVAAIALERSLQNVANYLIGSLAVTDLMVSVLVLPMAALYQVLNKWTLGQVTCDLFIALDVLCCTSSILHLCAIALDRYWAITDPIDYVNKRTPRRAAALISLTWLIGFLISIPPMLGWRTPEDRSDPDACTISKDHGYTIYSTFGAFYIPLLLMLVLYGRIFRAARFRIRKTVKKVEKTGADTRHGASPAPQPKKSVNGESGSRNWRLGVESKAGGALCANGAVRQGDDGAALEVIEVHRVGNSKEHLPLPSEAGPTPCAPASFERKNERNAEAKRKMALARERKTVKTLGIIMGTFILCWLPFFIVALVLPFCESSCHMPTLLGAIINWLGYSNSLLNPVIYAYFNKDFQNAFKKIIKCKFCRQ

The next assay has as its target Prothrombin (Homo sapiens, UniProt P00734). In kind it is functional.
Another assay deals with Histamine H1 receptor (Homo sapiens, UniProt P35367). In kind it is functional, cell-based.

Structures are written as SMILES.

Broadly, the AC50 is the concentration at which the activity in the assay is half-maximal. Low readings indicate activity at low concentration, high ones activity only at high concentration.
Note: assay procedure not described here.

Histamine H2 receptor, sequence (P25021 whole entry): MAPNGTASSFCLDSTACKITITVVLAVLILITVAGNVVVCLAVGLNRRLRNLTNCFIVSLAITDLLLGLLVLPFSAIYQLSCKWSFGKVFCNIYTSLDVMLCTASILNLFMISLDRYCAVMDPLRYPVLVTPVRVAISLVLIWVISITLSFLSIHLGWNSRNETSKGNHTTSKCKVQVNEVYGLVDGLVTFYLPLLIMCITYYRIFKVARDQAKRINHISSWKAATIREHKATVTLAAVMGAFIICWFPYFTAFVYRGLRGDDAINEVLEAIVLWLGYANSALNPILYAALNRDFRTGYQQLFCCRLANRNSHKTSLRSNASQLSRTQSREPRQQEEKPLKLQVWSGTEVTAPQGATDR
Mu-type opioid receptor, sequence (P35372 whole entry): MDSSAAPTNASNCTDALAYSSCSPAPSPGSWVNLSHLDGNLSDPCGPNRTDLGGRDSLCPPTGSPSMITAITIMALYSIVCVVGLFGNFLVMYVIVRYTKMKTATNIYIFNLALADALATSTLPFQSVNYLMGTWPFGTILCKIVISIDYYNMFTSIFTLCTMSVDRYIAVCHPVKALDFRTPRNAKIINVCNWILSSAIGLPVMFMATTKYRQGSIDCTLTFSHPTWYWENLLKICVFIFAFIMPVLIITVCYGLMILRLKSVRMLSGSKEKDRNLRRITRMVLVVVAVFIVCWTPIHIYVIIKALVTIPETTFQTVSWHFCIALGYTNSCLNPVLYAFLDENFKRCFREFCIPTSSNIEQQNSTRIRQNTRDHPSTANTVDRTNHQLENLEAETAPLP
D(3) dopamine receptor, sequence (P35462 whole entry): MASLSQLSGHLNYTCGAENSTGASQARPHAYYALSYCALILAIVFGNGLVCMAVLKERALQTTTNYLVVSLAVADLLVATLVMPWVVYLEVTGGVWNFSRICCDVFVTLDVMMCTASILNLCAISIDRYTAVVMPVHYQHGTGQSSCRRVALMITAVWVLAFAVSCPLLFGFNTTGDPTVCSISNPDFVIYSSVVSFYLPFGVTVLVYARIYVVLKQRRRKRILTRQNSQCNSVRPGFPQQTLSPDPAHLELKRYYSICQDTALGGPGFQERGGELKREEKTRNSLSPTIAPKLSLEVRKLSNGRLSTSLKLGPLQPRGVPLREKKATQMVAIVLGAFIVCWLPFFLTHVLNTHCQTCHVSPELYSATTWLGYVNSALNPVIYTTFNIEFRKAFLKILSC
5-hydroxytryptamine receptor 2B, sequence (P41595 whole entry): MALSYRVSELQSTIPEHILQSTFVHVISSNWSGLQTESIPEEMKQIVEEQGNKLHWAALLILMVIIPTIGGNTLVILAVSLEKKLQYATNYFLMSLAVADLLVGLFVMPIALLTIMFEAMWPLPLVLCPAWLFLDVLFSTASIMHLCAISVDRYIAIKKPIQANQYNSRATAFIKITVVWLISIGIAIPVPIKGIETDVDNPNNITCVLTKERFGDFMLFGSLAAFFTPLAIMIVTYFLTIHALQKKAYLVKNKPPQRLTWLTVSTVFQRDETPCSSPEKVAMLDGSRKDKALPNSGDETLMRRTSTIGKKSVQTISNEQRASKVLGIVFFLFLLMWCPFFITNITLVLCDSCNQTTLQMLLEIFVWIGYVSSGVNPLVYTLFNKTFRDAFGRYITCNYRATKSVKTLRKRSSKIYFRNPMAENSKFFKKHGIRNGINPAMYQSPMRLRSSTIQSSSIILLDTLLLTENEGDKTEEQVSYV
D(1A) dopamine receptor, sequence (P21728 whole entry): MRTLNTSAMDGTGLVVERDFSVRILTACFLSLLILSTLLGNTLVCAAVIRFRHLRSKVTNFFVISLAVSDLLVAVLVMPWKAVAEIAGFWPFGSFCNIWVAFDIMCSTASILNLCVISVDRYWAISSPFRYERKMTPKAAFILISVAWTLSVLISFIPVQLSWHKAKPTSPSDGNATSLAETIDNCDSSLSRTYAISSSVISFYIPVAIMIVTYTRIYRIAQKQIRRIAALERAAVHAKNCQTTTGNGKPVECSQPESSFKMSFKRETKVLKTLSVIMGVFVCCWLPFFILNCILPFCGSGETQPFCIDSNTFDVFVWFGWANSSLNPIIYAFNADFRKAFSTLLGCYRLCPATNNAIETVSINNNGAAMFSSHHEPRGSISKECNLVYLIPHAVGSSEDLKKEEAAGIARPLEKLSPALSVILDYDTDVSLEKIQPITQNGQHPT
cGMP-inhibited 3',5'-cyclic phosphodiesterase 3A, sequence (Q14432 whole entry): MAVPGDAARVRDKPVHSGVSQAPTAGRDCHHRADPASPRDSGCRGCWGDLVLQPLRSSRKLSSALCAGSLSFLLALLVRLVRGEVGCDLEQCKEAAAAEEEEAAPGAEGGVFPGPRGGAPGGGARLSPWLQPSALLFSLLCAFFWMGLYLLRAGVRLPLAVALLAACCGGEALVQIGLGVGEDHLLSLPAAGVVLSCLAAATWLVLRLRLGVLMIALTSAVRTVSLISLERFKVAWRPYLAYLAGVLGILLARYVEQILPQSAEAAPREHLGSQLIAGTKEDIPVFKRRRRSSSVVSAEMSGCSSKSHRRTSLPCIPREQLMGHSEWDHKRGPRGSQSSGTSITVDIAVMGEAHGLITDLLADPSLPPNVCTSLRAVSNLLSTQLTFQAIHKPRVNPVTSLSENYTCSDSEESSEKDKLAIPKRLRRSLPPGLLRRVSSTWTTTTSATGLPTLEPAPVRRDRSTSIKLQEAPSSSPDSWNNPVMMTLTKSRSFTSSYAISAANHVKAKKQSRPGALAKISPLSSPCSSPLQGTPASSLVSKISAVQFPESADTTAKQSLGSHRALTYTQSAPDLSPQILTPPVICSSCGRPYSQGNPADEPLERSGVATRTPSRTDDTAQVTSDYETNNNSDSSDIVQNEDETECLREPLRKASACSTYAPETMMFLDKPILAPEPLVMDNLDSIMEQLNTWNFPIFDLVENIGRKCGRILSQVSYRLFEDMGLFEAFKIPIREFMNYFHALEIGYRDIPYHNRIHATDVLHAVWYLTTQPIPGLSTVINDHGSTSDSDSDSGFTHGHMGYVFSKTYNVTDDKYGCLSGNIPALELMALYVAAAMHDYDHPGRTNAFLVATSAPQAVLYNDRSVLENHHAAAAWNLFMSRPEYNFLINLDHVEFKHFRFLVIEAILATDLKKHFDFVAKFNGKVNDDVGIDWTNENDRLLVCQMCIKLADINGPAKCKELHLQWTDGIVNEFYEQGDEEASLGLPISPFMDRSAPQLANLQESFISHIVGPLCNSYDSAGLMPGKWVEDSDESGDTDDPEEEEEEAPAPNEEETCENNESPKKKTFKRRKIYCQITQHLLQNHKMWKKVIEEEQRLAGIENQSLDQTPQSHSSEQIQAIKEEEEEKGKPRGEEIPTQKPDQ
Histamine H1 receptor, sequence (P35367 whole entry): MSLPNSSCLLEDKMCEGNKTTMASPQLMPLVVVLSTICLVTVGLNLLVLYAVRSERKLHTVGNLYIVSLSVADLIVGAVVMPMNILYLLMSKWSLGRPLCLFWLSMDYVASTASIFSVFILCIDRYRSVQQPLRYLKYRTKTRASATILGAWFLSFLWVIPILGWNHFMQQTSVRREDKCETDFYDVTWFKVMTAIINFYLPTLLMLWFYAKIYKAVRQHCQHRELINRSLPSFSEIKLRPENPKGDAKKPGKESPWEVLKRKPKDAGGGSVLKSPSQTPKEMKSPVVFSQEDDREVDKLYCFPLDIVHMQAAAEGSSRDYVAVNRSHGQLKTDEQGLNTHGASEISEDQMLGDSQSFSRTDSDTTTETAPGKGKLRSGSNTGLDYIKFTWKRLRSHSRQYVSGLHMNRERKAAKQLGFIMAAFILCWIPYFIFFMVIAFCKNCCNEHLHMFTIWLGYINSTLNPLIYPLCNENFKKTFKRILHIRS

For the compound `Cn1c(=O)cc(N2CCC[C@@H](N)C2)n(Cc2ccccc2C#N)c1=O` [ALOGLIPTIN], the AC50 in assay [1] is above 30 µM; in assay [2] it was above 10 µM; at Histamine H2 receptor, above 10 µM; in assay [3] it was above 10 µM.
Take `Nc1c2ccccc2nc2ccccc12` [AMINACRINE]: the AC50 was above 30 µM in assay [4]; above 30 µM on Estrogen receptor; 16.9 µM in [5]; above 30 µM at D(3) dopamine receptor; 4.27 µM in assay [6]; above 30 µM in assay [7]. In addition, the AC50 was 13.8 µM on Mu-type opioid receptor, 11.7 µM on D(1A) dopamine receptor and above 30 µM on Prothrombin.
With `CCN1CCCC1CNC(=O)c1cc(S(=O)(=O)CC)c(N)cc1OC` (stereo not drawn) [AMISULPRIDE], the AC50 on Histamine H1 receptor is above 30 µM.
The compound `CC(=O)OCC(=O)[C@@]1(O)[C@H](C)C[C@H]2[C@@H]3CCC4=CC(=O)C=C[C@]4(C)[C@@]3(F)[C@@H](O)C[C@@]21C` [DEXAMETHASONE ACETATE] came in with an AC50 in assay [1] above 30 µM.
Regarding `O=C(O)CCCCC1CCSS1` (stereo not drawn) [LIPOIC ACID, ALPHA], the AC50 in [4] is above 30 µM; on Estrogen receptor, above 10 µM; in [5] it was above 30 µM; at D(3) dopamine receptor it was above 30 µM; in assay [6] it was above 30 µM; in [7], above 30 µM. Also, the AC50 on Mu-type opioid receptor, on D(1A) dopamine receptor and at Prothrombin was above 30 µM in each case.
The compound `Cc1ncc2n1-c1ccc(Cl)cc1C(c1ccccc1F)=NC2` [MIDAZOLAM] came in with an AC50 in [2] above 10 µM.
The compound `OCc1cc(C(O)CNCCCCCCOCCCCc2ccccc2)ccc1O` (stereo not drawn) [SALMETEROL] gave an AC50 at Histamine H1 receptor above 30 µM.
`Cn1cnc2c(F)c(Nc3ccc(Br)cc3Cl)c(C(=O)NOCCO)cc21` [SELUMETINIB]: the AC50 (on Histamine H2 receptor; in assay [3]) was above 10 µM throughout.
